Measurements taken from ChEMBL document CHEMBL1201862, “PubChem BioAssay data set” (2004).
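Cells were grown in 96-well plates and exposed to each compound for 48 hours at five concentrations; endpoints were interpolated linearly between bracketing concentrations, or set to the highest concentration if not reached. GI50 marks 50% less growth.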 Active and inactive are the calls of the source. Rule as the data show it: active = GI50 up to about 1.1 µM and inactive = higher.

How the values were obtained:
Experiment in all cases: inhibition of tumour cell growth, NCI panel, 48 h
[1] = system: COLO 205
[2] = system: DLD-1
[3] = system: EKVX
[4] = system: HCT-116
[5] = system: HL-60
[6] = system: HOP-62
[7] = system: K562
[8] = system: MCF7
[9] = system: MOLT-4
[10] = system: NCI-H23
[11] = system: OVCAR-5
[12] = system: RXF 393
[13] = system: SF-268
[14] = system: SF-295
[15] = system: SK-MEL-28
[16] = system: SK-OV-3
[17] = system: SNB-19
[18] = system: SW-620
[19] = system: UACC-62
[20] = system: UO-31

Row | SMILES | GI50 [1] | GI50 [2] | GI50 [3] | GI50 [4] | GI50 [5] | GI50 [6] | GI50 [7] | GI50 [8] | GI50 [9] | GI50 [10] | GI50 [11] | GI50 [12] | GI50 [13] | GI50 [14] | GI50 [15] | GI50 [16] | GI50 [17] | GI50 [18] | GI50 [19] | GI50 [20]
1 | CN(C)CCNC(=O)c1cccc2[nH]c(-c3ccccn3)nc12 | 14 µM (inactive) | 33.7 µM (inactive) | 41.4 µM (inactive) | 19.4 µM (inactive) | 33.7 µM (inactive) | 35.3 µM (inactive) | > 55.6 µM (inactive) | 31.5 µM (inactive) | 20.7 µM (inactive) | 43.7 µM (inactive) | 38.2 µM (inactive) | 51.2 µM (inactive) | 28 µM (inactive) | 31 µM (inactive) | 36.6 µM (inactive) | 32.6 µM (inactive) | 42.2 µM (inactive) | 24.9 µM (inactive) | 20.2 µM (inactive) | 16.8 µM (inactive)
2 | CCC(C)C1NC(=O)CNC(=O)C2Cc3c([nH]c4cc(O)ccc34)[S+]([O-])CC(NC(=O)CNC1=O)C(=O)NC(CC(=O)O)C(=O)N1CC(O)CC1C(=O)NC(C(C)C(O)CO)C(=O)N2 (stereo not drawn) | 1.41 µM (inactive) | 12.4 µM (inactive) | 1.98 µM (inactive) | 6.37 µM (inactive) | 28.6 µM (inactive) | 0.662 µM (active) | 3.93 µM (inactive) | 5.12 µM (inactive) | 3.72 µM (inactive) | 1.83 µM (inactive) | 16.1 µM (inactive) | 0.579 µM (active) | 1.64 µM (inactive) | 1.51 µM (inactive) | 2.54 µM (inactive) | 13.2 µM (inactive) | 1.3 µM (inactive) | 36.2 µM (inactive) | 2.35 µM (inactive) | 1.55 µM (inactive)
3 | CCOC(=O)C(C#N)(Cc1c[nH]c2ccccc12)NC(C)=O (stereo not drawn) | > 100 µM (inactive) | > 100 µM (inactive) | > 100 µM (inactive) | > 100 µM (inactive) | > 100 µM (inactive) | > 100 µM (inactive) | > 100 µM (inactive) | – | > 100 µM (inactive) | > 100 µM (inactive) | > 100 µM (inactive) | > 100 µM (inactive) | > 100 µM (inactive) | > 100 µM (inactive) | > 100 µM (inactive) | > 100 µM (inactive) | – | > 100 µM (inactive) | > 100 µM (inactive) | > 100 µM (inactive)
4 | OCC#CCNCl | > 100 µM (inactive) | > 100 µM (inactive) | > 100 µM (inactive) | > 100 µM (inactive) | > 100 µM (inactive) | > 100 µM (inactive) | > 100 µM (inactive) | > 100 µM (inactive) | > 100 µM (inactive) | > 100 µM (inactive) | > 100 µM (inactive) | > 100 µM (inactive) | > 100 µM (inactive) | > 100 µM (inactive) | > 100 µM (inactive) | > 100 µM (inactive) | > 100 µM (inactive) | > 100 µM (inactive) | > 100 µM (inactive) | > 100 µM (inactive)
